In patent US8455616B2, “Nuclear translocation peptide” (National Center for Global Health and Medicine, priority 2007, dated 2013):
Ends that are not written are not given here.

Tests used:
[1] = cited from earlier work
[2] = test system: HeLa cells; assay: Cytotoxicity test (damage to intracellular DNA, anti-γ-H2AX staining); assay type: cell-based, human; conditions: HeLa cells incubated 2 days with peptide, fragmented double-stranded DNA stained with anti-γ-H2AX antibody, FIG. 8
Procedure: Testing of the peptide of the present invention for damage to intracellular DNA was performed in the following manner. • (Day 1) HeLa cells were seeded onto a dish at a concentration of 5×10^4 cells/dish, and cultured in 10% FCS/DMEM medium (2 mL). • (Day 2) Recombinant Vpr (protein derived from Vpr), C45D18 (Peptide 9), and LR20 (Peptide 1) were added, and the cells were incubated for 2 days. • (Day 4) The following sequence of treatments was performed on the cells: The dish was washed with PBS→the cells were fixed with 4% paraformaldehyde→after incubation for 20 min on ice, the cells were washed with PBS→200 μL of 1% Triton X-100/2M HCl solution was added, and the cells were incubated at room temperature for 30 min→blocking with 200 μL of 1% BSA was performed at room temperature for 1 h→anti-γ-H2AX antibody solution was added, and the fragmented double-stranded DNA was stained (37° C. for 30 min)→cy3-anti-mouse IgG solution was added, and the cells were incubated at room temperature for 30 min→the nuclei were stained with DAPI/PBST (3 min)→the cells were mounted on glass slides.
In FIG. 8 the stained parts indicate fragmented DNA.

[3] = test system: HeLa cells; assay: Cellular and nuclear translocation capability of magnetic particles in HeLa cells; assay type: cell-based, human; conditions: peptide-CMDM conjugates, iron 0.7 mg/mL, thymidine-arrested HeLa cells, 18 h exposure, T2 relaxation time by NMR, FIG. 1
Source text: With respect to the amount of cellular and nuclear translocation of the aforementioned peptide-magnetic nanoparticle conjugate, the translocation capability of the peptide of the present invention can be compared with that of a previous PTD by adding the conjugate to cultured cells, separating and recovering the cytoplasm and nuclei after letting the culture stand for a set period of time, measuring the T2 relaxation time by NMR, and measuring the amount of magnetic nanoparticles taken up by the cells.
After 18 h of exposure, the cells were washed with PBS and recovered, and centrifugal separation (2000 rpm for 5 min) was performed to precipitate the cells into pellets. After the cells were resuspended by adding 700 mL of PBS, they were lysed using a Dounce homogenizer and centrifuged (2000 rpm for 5 min) into pellets. […] Then the T2 relaxation time of each resulting fraction was measured by NMR. Concurrently, the protein concentration of each fraction was measured by BSA protein assay.
Because a fixed relation is established between T2 relaxation time and magnetic substance concentration, the magnetic substance concentration can be calculated by assuming that the T2 relaxation of the sample is the same before and after the test. The calculated concentration was corrected further using the protein concentration.

In the case of “Peptide 12: PTD peptide discovered during research to enhance the function of the Tat peptide (Mukai et al.), synthesized with additional GGC (THRLPRRRRRR; YM-3 peptide)”, the “cellular translocation capability relative to the Tat peptide” value ([1]; Mukai et al., Biol. Pharm. Bull. 29(8), 1570 (2006)) is listed as “approximately three times higher than that of the Tat peptide”.
For `CC[C@H](C)[C@H](NC(=O)[C@H](CCCNC(=N)N)NC(=O)[C@H](CO)NC(=O)[C@H](Cc1c[nH]cn1)NC(=O)[C@H](CCCNC(=N)N)NC(=O)[C@H](CS)NC(=O)CNC(=O)[C@@H](NC(=O)[C@H](CCCNC(=N)N)NC(=O)[C@H](Cc1ccccc1)NC(=O)[C@H](Cc1c[nH]cn1)NC(=O)[C@@H](NC(=O)[C@H](Cc1ccccc1)NC(=O)[C@H](CC(C)C)NC(=O)[C@H](CC(C)C)NC(=O)[C@H](CCC(N)=O)NC(=O)[C@H](CCC(N)=O)NC(=O)[C@H](CC(C)C)NC(=O)[C@@H](NC(=O)[C@@H](N)CCCNC(=N)N)[C@@H](C)CC)[C@@H](C)CC)[C@@H](C)CC)C(=O)O` [Peptide 1, RILQQLLFIHFRIGCRHSRI], the “DNA damage (cytotoxicity)” value [2] was “extent of DNA damage is decreased”.
For “R I L Q Q L L F I H F R I G C [Peptide 3]”, the “cellular and nuclear translocation capability” value [3] was “best cellular and nuclear translocation capability”.
For “RIFIHFRIGC [Peptide 4, R I F I H F R I G C]”, the “DNA damage (cytotoxicity)” value [2] was “no damage to DNA was seen”.
In the case of “DTWAGVEAIIRILQQLLFIHFRIGCRH [Peptide 9]”, the “translocation capability relative to a protein originating in Vpr” value ([1]; Taguchi et al., Biochem. Biophys. Res. Comm., 320, 18 (2004)) is given as “stronger translocation capability than a protein originating in Vpr” and the “translocation capability of conjugates with enzymatic proteins relative to the Tat peptide” value ([1]; conjugates of C45D18 and enzymatic proteins, into a cell and into a nucleus, Taguchi et al. (2004)) is given as “greater than that of the Tat peptide”.
